Measurements from US20020137929A1, “1 - (3-heterocyclylphenyl) isothiourea, -isourea, -guanidine and -amidine herbicidal agents” (Intellectual Property Department, BASF Aktiengesellschaft, priority 1998, published 2002).

What was measured:
CYPIR (Rice Flatsedge) = test: Preemergence weed control under flooded paddy conditions; type: in vivo, Cyperus iria; conditions: rated 3-4 weeks after treatment
Outline: (§1)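 Seeds or propagules sown in silt loam kept flooded 1.5-3 cm; compounds in 50/50 acetone/water pipetted into flood water at about 0.0313 to 0.500 kg/ha. Greenhouse; visual 0-9 rating versus untreated control 3-4 weeks after treatment.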

ABUTH (Velvetleaf) = test: Postemergence herbicidal evaluation; type: in vivo, Abutilon theophrasti; conditions: postemergence
Outline: (§2)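 Compound is applied as a foliar spray to seedlings about two weeks old, formulated in equal parts acetone and water with 0.5% TWEEN 20 and delivered at 40 psi to give about 0.0156–0.500 kg per hectare. Injury is rated visually 0–9 after four to five weeks.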

MOOVA (Monochoria) = test: Preemergence weed control under flooded paddy conditions; type: in vivo, Monochoria vaginalis; conditions: rated 3-4 weeks after treatment
Outline: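 Seeds or propagules sown in top 0.5 cm of silt loam soil, flooded 1.5 to 3 cm above surface throughout. Compound in 50/50 v/v aqueous/acetone pipetted into flood water at about 0.0313 to 0.500 kg/ha. Visual 0-9 rating versus control after three to four weeks in greenhouse.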

ECHCG (Barnyardgrass) = test: Postemergence herbicidal evaluation; type: in vivo, Echinochloa crus-galli; conditions: postemergence
Outline: as §2

SETVI (Foxtail, Green) = test: Postemergence herbicidal evaluation; type: in vivo, Setaria viridis; conditions: postemergence
Outline: as §2

[1] = tested on: IPOHE (Morningglory, Ivyleaf); test: Preemergence herbicidal evaluation; type: in vivo, Ipomoea hederacea; conditions: rated 4-5 weeks after treatment, rating scale 0-9
Outline: (§3)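 Greenhouse preemergence test: seed-soil mix sown on ~1 inch soil; aqueous acetone spray at equivalent of ~0.0156–0.500 kg/ha; greenhouse-held and watered; scored 0–9 visually at 4–5 weeks.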

[2] = tested on: ECHORC (Watergrass (Calif.)); test: Preemergence weed control under flooded paddy conditions; type: in vivo, Echinochloa oryzoides; conditions: rated 3-4 weeks after treatment
Outline: as §1

GALAP (Galium) = test: Postemergence herbicidal evaluation; type: in vivo, Galium aparine; conditions: postemergence
Outline: as §2

ZEAMX (Corn, Field) = test: Preemergence herbicidal evaluation; type: in vivo, Zea mays; conditions: rated 4-5 weeks after treatment, rating scale 0-9
Outline: as §3

ORYSAT (Rice, Tebonnet) = test: Postemergence herbicidal evaluation; type: in vivo, Oryza sativa, (L.) Tebonnet; conditions: postemergence
Outline: as §2

[3] = tested on: TRZAWR (Wheat, Winter, cv Riband); test: Preemergence herbicidal evaluation; type: in vivo, Triticum aestivum; conditions: rated 4-5 weeks after treatment, rating scale 0-9
Outline: as §3

With Cn1c(C(F)(F)F)cc(=O)n(-c2cc(N=C3SCC(=O)N3Cc3cccc(Cl)c3)c(Cl)cc2F)c1=O [Compound 136, 3-{4-Chloro-5-{[3-(m-chlorobenzyl)-4-oxo-2-thiazolidinylidene]amino}-2-fluorophenyl}-1-methyl-6-(trifluoromethyl)-2,4(1H,3H)-pyrimidinedione] the “herbicidal effect rating, CYPIR” value (CYPIR (Rice Flatsedge); 0.0313 kg/ha) was 0.0, the “herbicidal effect rating, CYPIR” value (CYPIR (Rice Flatsedge); 0.0625 kg/ha) was 5.0 and the “herbicidal effect rating, CYPIR” value (CYPIR (Rice Flatsedge); 0.1250 kg/ha) was 6.0. For the same molecule, the “herbicidal effect rating, CYPIR” value (CYPIR (Rice Flatsedge); 0.2500 kg/ha) was 7.0, the “Herbicidal rating ABUTH” value (ABUTH (Velvetleaf); rate 0.0156 kg/ha) was 9.0 and the “Herbicidal rating ABUTH” value (ABUTH (Velvetleaf); rate 0.0313 kg/ha) was 9.0. The “Herbicidal rating ABUTH” value (ABUTH (Velvetleaf); rate 0.0625 kg/ha) was 9.0, the “herbicidal effect rating, MOOVA” value (MOOVA (Monochoria); 0.0313 kg/ha) was 3.0 and the “herbicidal effect rating, MOOVA” value (MOOVA (Monochoria); 0.0625 kg/ha) was 4.0. For the same molecule, the “herbicidal effect rating, MOOVA” value (MOOVA (Monochoria); 0.1250 kg/ha) was 9.0, the “herbicidal effect rating, MOOVA” value (MOOVA (Monochoria); 0.2500 kg/ha) was 9.0 and the “Herbicidal rating ECHCG” value (ECHCG (Barnyardgrass); rate 0.0156 kg/ha) was 2.0. The “Herbicidal rating ECHCG” value (ECHCG (Barnyardgrass); rate 0.0313 kg/ha) was 3.0, the “Herbicidal rating ECHCG” value (ECHCG (Barnyardgrass); rate 0.0625 kg/ha) was 3.0 and the “Herbicidal rating SETVI” value (SETVI (Foxtail, Green); rate 0.0156 kg/ha) was 4.0. For the same molecule, the “Herbicidal rating SETVI” value (SETVI (Foxtail, Green); rate 0.0313 kg/ha) was 6.0, the “Herbicidal rating SETVI” value (SETVI (Foxtail, Green); rate 0.0625 kg/ha) was 6.0 and the “Preemergence herbicidal rating IPOHE” value ([1]; rate 0.0156 kg/ha) was 0.0. For the same molecule, the “Preemergence herbicidal rating IPOHE” value ([1]; rate 0.0313 kg/ha) was 0.0, the “Preemergence herbicidal rating IPOHE” value ([1]; rate 0.0625 kg/ha) was 0.0 and the “Preemergence herbicidal rating IPOHE” value ([1]; rate 0.1250 kg/ha) was 0.0. The “Preemergence herbicidal rating IPOHE” value ([1]; rate 0.2500 kg/ha) was 0.0, the “herbicidal effect rating, ECHORC” value ([2]; 0.0313 kg/ha) was 7.0 and the “herbicidal effect rating, ECHORC” value ([2]; 0.0625 kg/ha) was 7.0. The “herbicidal effect rating, ECHORC” value ([2]; 0.1250 kg/ha) was 7.0, the “herbicidal effect rating, ECHORC” value ([2]; 0.2500 kg/ha) was 9.0 and the “Herbicidal rating GALAP” value (GALAP (Galium); rate 0.0156 kg/ha) was 1.0. For the same molecule, the “Herbicidal rating GALAP” value (GALAP (Galium); rate 0.0313 kg/ha) was 2.0, the “Herbicidal rating GALAP” value (GALAP (Galium); rate 0.0625 kg/ha) was 3.0 and the “Preemergence herbicidal rating ZEAMX” value (ZEAMX (Corn, Field); rate 0.0156 kg/ha) was 0.0. For the same molecule, the “Preemergence herbicidal rating ZEAMX” value (ZEAMX (Corn, Field); rate 0.0313 kg/ha) was 0.0, the “Preemergence herbicidal rating ZEAMX” value (ZEAMX (Corn, Field); rate 0.0625 kg/ha) was 0.0 and the “Preemergence herbicidal rating ZEAMX” value (ZEAMX (Corn, Field); rate 0.1250 kg/ha) was 1.0. For the same molecule, the “Preemergence herbicidal rating ZEAMX” value (ZEAMX (Corn, Field); rate 0.2500 kg/ha) was 3.0, the “Herbicidal rating ORYSAT” value (ORYSAT (Rice, Tebonnet); rate 0.0156 kg/ha) was 2.5 and the “Herbicidal rating ORYSAT” value (ORYSAT (Rice, Tebonnet); rate 0.0313 kg/ha) was 3.0. The “Herbicidal rating ORYSAT” value (ORYSAT (Rice, Tebonnet); rate 0.0625 kg/ha) was 2.5, the “Preemergence herbicidal rating TRZAWR” value ([3]; rate 0.0156 kg/ha) was 0.0 and the “Preemergence herbicidal rating TRZAWR” value ([3]; rate 0.0313 kg/ha) was 0.0. For the same molecule, the “Preemergence herbicidal rating TRZAWR” value ([3]; rate 0.0625 kg/ha) was 0.0, the “Preemergence herbicidal rating TRZAWR” value ([3]; rate 0.1250 kg/ha) was 1.0 and the “Preemergence herbicidal rating TRZAWR” value ([3]; rate 0.2500 kg/ha) was 1.0.

In the case of Cn1c(C(F)(F)F)cc(=O)n(-c2cc(N=C3SCC(=O)N3Cc3ccccn3)c(Cl)cc2F)c1=O [Compound 131], the “herbicidal effect rating, CYPIR” value (CYPIR (Rice Flatsedge); 0.1250 kg/ha) was 0.0, the “herbicidal effect rating, CYPIR” value (CYPIR (Rice Flatsedge); 0.2500 kg/ha) was 4.0 and the “Herbicidal rating ABUTH” value (ABUTH (Velvetleaf); rate 0.0156 kg/ha) was 7.0. For the same molecule, the “Herbicidal rating ABUTH” value (ABUTH (Velvetleaf); rate 0.0313 kg/ha) was 9.0, the “Herbicidal rating ABUTH” value (ABUTH (Velvetleaf); rate 0.0625 kg/ha) was 9.0 and the “herbicidal effect rating, MOOVA” value (MOOVA (Monochoria); 0.1250 kg/ha) was 0.0. For the same molecule, the “herbicidal effect rating, MOOVA” value (MOOVA (Monochoria); 0.2500 kg/ha) was 2.0, the “Herbicidal rating ECHCG” value (ECHCG (Barnyardgrass); rate 0.0156 kg/ha) was 2.0 and the “Herbicidal rating ECHCG” value (ECHCG (Barnyardgrass); rate 0.0313 kg/ha) was 2.0. For the same molecule, the “Herbicidal rating ECHCG” value (ECHCG (Barnyardgrass); rate 0.0625 kg/ha) was 2.0, the “Herbicidal rating SETVI” value (SETVI (Foxtail, Green); rate 0.0156 kg/ha) was 3.0 and the “Herbicidal rating SETVI” value (SETVI (Foxtail, Green); rate 0.0313 kg/ha) was 4.0. For the same molecule, the “Herbicidal rating SETVI” value (SETVI (Foxtail, Green); rate 0.0625 kg/ha) was 5.0, the “Preemergence herbicidal rating IPOHE” value ([1]; rate 0.0313 kg/ha) was 0.0 and the “Preemergence herbicidal rating IPOHE” value ([1]; rate 0.0625 kg/ha) was 0.0. The “Preemergence herbicidal rating IPOHE” value ([1]; rate 0.1250 kg/ha) was 0.0, the “Preemergence herbicidal rating IPOHE” value ([1]; rate 0.2500 kg/ha) was 0.0 and the “herbicidal effect rating, ECHORC” value ([2]; 0.1250 kg/ha) was 2.0. The “herbicidal effect rating, ECHORC” value ([2]; 0.2500 kg/ha) was 4.0, the “Herbicidal rating GALAP” value (GALAP (Galium); rate 0.0156 kg/ha) was 1.0 and the “Herbicidal rating GALAP” value (GALAP (Galium); rate 0.0313 kg/ha) was 3.0. For the same molecule, the “Herbicidal rating GALAP” value (GALAP (Galium); rate 0.0625 kg/ha) was 3.0, the “Preemergence herbicidal rating ZEAMX” value (ZEAMX (Corn, Field); rate 0.0313 kg/ha) was 0.0 and the “Preemergence herbicidal rating ZEAMX” value (ZEAMX (Corn, Field); rate 0.0625 kg/ha) was 0.0. For the same molecule, the “Preemergence herbicidal rating ZEAMX” value (ZEAMX (Corn, Field); rate 0.1250 kg/ha) was 0.0, the “Preemergence herbicidal rating ZEAMX” value (ZEAMX (Corn, Field); rate 0.2500 kg/ha) was 0.0 and the “Herbicidal rating ORYSAT” value (ORYSAT (Rice, Tebonnet); rate 0.0156 kg/ha) was 2.0. For the same molecule, the “Herbicidal rating ORYSAT” value (ORYSAT (Rice, Tebonnet); rate 0.0313 kg/ha) was 2.5, the “Herbicidal rating ORYSAT” value (ORYSAT (Rice, Tebonnet); rate 0.0625 kg/ha) was 3.0 and the “Preemergence herbicidal rating TRZAWR” value ([3]; rate 0.0313 kg/ha) was 0.0. For the same molecule, the “Preemergence herbicidal rating TRZAWR” value ([3]; rate 0.0625 kg/ha) was 0.0, the “Preemergence herbicidal rating TRZAWR” value ([3]; rate 0.1250 kg/ha) was 0.0 and the “Preemergence herbicidal rating TRZAWR” value ([3]; rate 0.2500 kg/ha) was 0.0.
